Measurements taken from ChEMBL document CHEMBL1201862, “PubChem BioAssay data set” (2004).
Activity calls are given as the source filed them.

What was measured:
[1] = alpha-synuclein stem-loop luciferase translation blockers – H4 neuroglioma cells, luminescence, confirmation (AID 1988); format: functional, cell-based
[2] = target: G-protein coupled receptor 55 (Homo sapiens, UniProt Q9Y2T6); test: selective activators of receptor GPR55 – imaging, U2OS cells, beta-arrestin-GFP redistribution, primary screen (AID 1961); format: functional
Sequence of G-protein coupled receptor 55 (Q9Y2T6 whole entry): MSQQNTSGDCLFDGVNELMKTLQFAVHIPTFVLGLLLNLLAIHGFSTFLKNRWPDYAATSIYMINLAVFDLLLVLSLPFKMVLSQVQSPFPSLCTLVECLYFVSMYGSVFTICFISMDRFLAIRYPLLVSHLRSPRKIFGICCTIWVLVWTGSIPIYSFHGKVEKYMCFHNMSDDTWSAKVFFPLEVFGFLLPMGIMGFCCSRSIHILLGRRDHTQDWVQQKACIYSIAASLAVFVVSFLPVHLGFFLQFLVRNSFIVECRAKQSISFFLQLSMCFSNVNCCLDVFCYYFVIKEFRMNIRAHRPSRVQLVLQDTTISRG

[3] = luciferase reporter signal suppression in cells – H4 neuroglioma cells, luminescence, dose response (AID 1990); format: functional, cell-based
[4] = Luminescence Cell-Based Dose Response HTS to Identify Inhibitors of 5'UTR Stem-Loop Driven Prion Protein mRNA Translation in H4 Neuroglioblastoma Cells. [Related pubchem assays: 1827 (Project Summary), 1813 (Primary HTS)]; format: functional
INS1 = test: INS-1E survival protection against cytokine death – cell-based, luminescence, retest, dose response (AID 449756); format: functional; conditions: Rattus norvegicus;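 further: cell death triggered by IL-1 beta plus TNF-alpha plus IFN-gamma mixture; protective hits raise ATP signal compared with cytokine alone wells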
[5] = viability loss in HEK293T cells – cell-based, cherry-picks, cytotoxicity control for HIV Vif inhibitor project, dose response (AID 652208); format: functional
[6] = Late stage assay provider results from the probe development effort to identify inhibitors of the Plasmodium falciparum M17 Leucine Aminopeptidase (M17LAP): radiolabel-based cell-based dose response assay to identify compounds that inhibit P. falciparum growth in RBCs Set 2.; format: functional
Protein Wnt-3a [7] = target: T1, Protein Wnt-3a (Mus musculus, UniProt P27467); test: antagonism of Wnt3a pathway luciferase reporter – Wnt-LIGHT cells, luminescence, selectivity assay for Gli-SUFU antagonist project, dose response (AID 651570); format: functional; conditions: read-out: IC50_Mean;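 further: Wnt-LIGHT reporter cells stimulated with conditioned medium from Wnt3a-producing cells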
T1 sequence (P27467 whole entry): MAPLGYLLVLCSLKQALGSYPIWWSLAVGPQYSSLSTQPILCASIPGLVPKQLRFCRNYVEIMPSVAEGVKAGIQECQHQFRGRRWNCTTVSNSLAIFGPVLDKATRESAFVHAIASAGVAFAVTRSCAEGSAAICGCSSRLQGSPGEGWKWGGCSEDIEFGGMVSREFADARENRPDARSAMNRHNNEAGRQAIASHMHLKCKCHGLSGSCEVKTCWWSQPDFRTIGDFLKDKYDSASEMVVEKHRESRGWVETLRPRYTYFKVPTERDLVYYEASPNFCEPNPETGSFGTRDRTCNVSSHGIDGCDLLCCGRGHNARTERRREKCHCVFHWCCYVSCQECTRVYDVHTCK

[8] = target: Matrix metalloproteinase-14 (Homo sapiens, UniProt P50281); test: Dose Response confirmation of uHTS hits for a small molecule inhibitors of MT1-MMP activation in a fluorescence assay set 1.; format: functional
Beta-galactosidase = Beta-galactosidase (Escherichia coli, UniProt Q8VNN2); test: Dose response counterscreen for EBI2 assay utilizing the enzyme, b-galactosidase.; format: functional
Sequence of Beta-galactosidase (Q8VNN2 whole entry): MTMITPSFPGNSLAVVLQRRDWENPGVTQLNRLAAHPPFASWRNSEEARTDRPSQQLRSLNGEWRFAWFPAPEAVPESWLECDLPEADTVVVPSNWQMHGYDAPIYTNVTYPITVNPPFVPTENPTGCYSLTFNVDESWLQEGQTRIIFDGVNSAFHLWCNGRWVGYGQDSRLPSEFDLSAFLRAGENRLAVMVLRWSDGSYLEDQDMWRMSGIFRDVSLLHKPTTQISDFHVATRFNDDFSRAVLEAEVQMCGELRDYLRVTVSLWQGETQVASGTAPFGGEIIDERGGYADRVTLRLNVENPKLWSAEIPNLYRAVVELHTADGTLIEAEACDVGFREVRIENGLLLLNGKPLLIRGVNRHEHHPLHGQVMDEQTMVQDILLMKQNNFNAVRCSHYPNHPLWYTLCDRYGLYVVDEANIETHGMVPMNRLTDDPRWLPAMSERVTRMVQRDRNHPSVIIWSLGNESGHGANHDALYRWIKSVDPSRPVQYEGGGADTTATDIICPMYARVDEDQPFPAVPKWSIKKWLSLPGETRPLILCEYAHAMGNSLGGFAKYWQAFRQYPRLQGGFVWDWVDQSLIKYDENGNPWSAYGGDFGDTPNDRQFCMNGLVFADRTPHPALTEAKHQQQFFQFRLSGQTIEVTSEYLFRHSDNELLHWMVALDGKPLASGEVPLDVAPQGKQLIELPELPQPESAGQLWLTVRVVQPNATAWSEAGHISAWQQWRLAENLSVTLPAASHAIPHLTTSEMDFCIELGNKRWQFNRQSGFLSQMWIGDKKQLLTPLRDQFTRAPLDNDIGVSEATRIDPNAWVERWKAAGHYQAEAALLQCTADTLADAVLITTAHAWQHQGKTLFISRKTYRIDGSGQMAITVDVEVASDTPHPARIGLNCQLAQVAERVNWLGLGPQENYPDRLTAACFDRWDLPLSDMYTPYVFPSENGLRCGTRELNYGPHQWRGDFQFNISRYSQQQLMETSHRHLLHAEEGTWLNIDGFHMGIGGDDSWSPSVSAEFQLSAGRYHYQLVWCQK

[9] = target: T2, Low molecular weight phosphotyrosine protein phosphatase (Homo sapiens, UniProt P24666); format: functional; conditions: read-out: IC50_Mean
T2 sequence (P24666 whole entry): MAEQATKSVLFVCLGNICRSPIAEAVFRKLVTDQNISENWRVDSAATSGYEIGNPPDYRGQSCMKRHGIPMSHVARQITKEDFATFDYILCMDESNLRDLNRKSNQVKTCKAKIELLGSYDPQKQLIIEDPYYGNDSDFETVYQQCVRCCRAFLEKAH

[10] = target: T2, Low molecular weight phosphotyrosine protein phosphatase; format: functional; conditions: read-out: IC50_Mean; remark: listed apart in the source
[11] = target: T3, Small ubiquitin-related modifier 1 (Homo sapiens, UniProt P63165); test: SUMO1 protein interaction blockers, potency – biochemical, fluorescence polarization, uHTS hits, dose response (AID 624382); format: functional; conditions: read-out: IC50_Mean
T3 sequence (P63165 whole entry): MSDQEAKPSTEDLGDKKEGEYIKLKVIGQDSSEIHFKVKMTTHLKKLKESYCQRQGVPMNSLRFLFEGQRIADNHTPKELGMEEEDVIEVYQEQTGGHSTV

[12] = target: T3, Small ubiquitin-related modifier 1; test: SUMO1 protein-protein binding blockers, potency – biochemical, FRET, dose response (AID 624383); format: functional; conditions: read-out: IC50_Mean
Protein Wnt-3a [13] = target: T1, Protein Wnt-3a; test: SAR analysis of small molecule antagonists of Gli-SUFU in a Wnt3a luminescent reporter assay.; format: functional
[14] = intracellular Trypanosoma cruzi inhibitors in host cells – cell-based, plate reader, cherry-pick samples, set 3, dose response (AID 651818); format: functional;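 further: compounds incubated with infected cells for about four days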
[15] = mouse fibroblast viability loss – cell-based, cherry-pick samples, set 2, cytotoxicity control for T. cruzi growth inhibitor project, dose response (AID 651817); format: functional; conditions: NIH3T3
[16] = Counterscreen for activators of the function of SWI/SNF related, matrix associated, actin dependent regulator of chromatin, subfamily a, member 2 (SMARCA2, BRM): Luminescence-based cell-based high throughput dose response assay to identify non-selective compounds using the VP16 reporter assay.; format: functional
[17] = target: SWI/SNF-related matrix-associated actin-dependent regulator of chromatin subfamily A member 2 (Homo sapiens, UniProt P51531); test: Luminescence-based cell-based high throughput dose response assay to identify activators of the function of SWI/SNF related, matrix associated, actin dependent regulator of chromatin, subfamily a, member 2 (SMARCA2, BRM).; format: functional
Sequence of SWI/SNF-related matrix-associated actin-dependent regulator of chromatin subfamily A member 2 (P51531 whole entry): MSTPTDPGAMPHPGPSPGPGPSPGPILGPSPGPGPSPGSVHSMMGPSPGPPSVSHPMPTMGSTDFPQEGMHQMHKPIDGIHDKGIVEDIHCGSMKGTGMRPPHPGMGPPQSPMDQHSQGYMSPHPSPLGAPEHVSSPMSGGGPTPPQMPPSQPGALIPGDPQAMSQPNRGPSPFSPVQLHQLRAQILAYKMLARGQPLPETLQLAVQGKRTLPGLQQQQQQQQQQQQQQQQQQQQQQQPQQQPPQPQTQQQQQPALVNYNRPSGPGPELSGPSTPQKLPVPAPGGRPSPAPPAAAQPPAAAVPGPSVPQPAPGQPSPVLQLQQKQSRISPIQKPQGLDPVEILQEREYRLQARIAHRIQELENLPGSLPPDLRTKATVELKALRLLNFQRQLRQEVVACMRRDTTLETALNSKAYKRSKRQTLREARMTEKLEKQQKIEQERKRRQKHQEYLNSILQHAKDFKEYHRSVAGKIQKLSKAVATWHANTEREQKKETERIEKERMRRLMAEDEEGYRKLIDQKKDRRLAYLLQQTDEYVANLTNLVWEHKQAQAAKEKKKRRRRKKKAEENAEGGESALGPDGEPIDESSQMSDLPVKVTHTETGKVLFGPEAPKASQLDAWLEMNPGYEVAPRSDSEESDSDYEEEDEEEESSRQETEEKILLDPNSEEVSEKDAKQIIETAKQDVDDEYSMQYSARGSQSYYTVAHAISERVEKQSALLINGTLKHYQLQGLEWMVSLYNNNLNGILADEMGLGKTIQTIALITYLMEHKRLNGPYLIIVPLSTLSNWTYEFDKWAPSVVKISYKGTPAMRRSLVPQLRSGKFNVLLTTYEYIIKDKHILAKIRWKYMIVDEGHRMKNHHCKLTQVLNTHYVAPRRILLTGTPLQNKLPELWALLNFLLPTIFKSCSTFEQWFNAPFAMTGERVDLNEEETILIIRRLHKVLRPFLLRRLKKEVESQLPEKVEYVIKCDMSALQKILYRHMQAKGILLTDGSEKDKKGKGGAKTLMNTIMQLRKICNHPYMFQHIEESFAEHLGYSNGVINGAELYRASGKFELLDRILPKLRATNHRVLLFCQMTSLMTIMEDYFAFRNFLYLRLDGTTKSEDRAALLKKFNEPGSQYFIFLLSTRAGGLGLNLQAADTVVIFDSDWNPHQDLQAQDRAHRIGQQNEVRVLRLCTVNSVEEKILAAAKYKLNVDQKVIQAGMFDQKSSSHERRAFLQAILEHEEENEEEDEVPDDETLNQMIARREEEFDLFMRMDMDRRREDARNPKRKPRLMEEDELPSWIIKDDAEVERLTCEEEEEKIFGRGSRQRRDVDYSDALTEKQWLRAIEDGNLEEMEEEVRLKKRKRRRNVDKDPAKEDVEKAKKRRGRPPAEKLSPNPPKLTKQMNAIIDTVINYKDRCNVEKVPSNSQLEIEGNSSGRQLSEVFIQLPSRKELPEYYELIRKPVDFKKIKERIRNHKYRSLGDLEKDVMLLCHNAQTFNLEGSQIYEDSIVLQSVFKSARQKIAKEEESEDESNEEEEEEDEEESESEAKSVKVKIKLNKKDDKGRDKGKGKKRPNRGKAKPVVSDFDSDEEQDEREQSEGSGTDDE

[18] = HGIII-sPLA2 enzyme inhibition potency – biochemical, QFRET, IC50, dose response (AID 743457);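 further: green fluorescence rise as the enzyme cleaves BODIPY PC-A2 in liposomes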
Large T antigen = Large T antigen (Simian virus 40, UniProt P03070); format: functional, Betapolyomavirus macacae;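 further: Confirmatory-stage PubChem screen for compounds that inhibit SV40 T antigen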
Sequence of Large T antigen (P03070 whole entry, the tested form may be a part): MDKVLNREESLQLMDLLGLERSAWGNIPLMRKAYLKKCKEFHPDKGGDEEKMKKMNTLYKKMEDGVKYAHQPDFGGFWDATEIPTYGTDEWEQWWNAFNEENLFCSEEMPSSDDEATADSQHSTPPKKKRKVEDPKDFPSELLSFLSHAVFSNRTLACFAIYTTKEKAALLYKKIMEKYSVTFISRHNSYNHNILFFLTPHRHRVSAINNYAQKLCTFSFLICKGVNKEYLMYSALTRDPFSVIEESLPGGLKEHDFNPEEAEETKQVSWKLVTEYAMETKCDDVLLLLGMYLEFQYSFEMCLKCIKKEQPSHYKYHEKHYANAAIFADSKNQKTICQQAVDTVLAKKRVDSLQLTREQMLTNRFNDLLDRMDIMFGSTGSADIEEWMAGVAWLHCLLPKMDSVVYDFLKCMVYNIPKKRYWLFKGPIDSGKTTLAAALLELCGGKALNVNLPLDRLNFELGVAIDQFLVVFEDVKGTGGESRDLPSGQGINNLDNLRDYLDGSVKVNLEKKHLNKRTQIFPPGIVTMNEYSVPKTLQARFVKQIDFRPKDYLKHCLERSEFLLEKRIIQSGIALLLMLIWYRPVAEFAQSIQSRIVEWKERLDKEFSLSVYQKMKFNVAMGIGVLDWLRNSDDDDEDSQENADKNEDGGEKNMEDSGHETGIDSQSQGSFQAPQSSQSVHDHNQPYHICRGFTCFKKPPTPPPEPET

[19] = target: T4, Sentrin-specific protease 1 (Homo sapiens, UniProt Q9P0U3); test: SENP1 catalytic domain blockers, concentration series – biochemical, kinetic FRET, dose response (AID 651697); format: functional; conditions: read-out: IC50_Mean
T4 sequence (Q9P0U3 whole entry, the tested form may be a part): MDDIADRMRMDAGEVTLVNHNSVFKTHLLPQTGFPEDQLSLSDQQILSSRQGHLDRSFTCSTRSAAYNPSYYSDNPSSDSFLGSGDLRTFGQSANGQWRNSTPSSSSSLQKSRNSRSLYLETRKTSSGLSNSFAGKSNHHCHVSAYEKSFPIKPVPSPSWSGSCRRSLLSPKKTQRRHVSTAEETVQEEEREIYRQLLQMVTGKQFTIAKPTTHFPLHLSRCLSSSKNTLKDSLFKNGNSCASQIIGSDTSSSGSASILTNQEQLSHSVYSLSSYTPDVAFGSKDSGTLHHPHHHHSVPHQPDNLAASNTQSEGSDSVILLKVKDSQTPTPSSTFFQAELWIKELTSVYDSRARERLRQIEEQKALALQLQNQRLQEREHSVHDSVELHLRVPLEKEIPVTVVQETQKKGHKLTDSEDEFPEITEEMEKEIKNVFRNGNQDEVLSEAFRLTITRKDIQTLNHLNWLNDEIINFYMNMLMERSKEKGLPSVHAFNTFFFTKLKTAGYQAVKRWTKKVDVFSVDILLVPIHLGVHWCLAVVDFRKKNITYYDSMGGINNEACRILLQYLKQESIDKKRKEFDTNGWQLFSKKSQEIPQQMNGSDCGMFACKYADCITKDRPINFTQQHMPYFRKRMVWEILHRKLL

[20] = target: T5, Rac GTPase-activating protein 1 (Homo sapiens, UniProt Q9H0H5); test: blockers of MgcRacGAP-driven Rac1 GTP hydrolysis – biochemical, ADP Hunter fluorescence, primary and confirmatory, confirmation (AID 624330); format: functional
T5 sequence (Q9H0H5 whole entry): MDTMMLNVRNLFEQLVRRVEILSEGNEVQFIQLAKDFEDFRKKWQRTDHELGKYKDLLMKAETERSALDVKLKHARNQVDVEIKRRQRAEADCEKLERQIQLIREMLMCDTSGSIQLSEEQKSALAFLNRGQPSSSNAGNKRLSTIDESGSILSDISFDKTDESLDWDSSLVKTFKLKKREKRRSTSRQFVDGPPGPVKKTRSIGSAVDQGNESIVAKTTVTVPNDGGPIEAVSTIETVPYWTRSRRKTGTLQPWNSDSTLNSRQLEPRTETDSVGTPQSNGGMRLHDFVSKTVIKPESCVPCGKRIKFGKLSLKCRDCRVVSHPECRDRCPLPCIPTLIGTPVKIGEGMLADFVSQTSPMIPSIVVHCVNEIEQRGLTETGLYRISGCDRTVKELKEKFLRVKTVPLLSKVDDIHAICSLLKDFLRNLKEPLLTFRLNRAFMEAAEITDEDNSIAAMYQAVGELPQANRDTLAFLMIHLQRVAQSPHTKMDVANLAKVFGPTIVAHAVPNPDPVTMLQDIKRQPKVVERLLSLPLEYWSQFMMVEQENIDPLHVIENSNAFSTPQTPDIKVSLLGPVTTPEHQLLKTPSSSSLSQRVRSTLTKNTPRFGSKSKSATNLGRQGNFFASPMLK

[21] = target: T4, Sentrin-specific protease 1; test: Dose response confirmation of small molecule inhibitors of the catalytic domain of the SUMO protease, SENP1 in a FRET assay.; format: functional; conditions: read-out: IC50_Mean
[22] = anti-trypanosomal activity in BESM host cells – imaging, CA-I/72 strain, bovine embryo skeletal muscle, dry powder, dose response (AID 651885); format: functional, cell-based

Question: With Nc1c(C(=O)Nc2ccc(S(=O)(=O)N3CCCC3)cc2)sc2nc3ccc(OC(F)(F)F)cc3cc12 as the compound, how does the EC50 [1] read?
Answer: 2.05 µM (active)

Question: And the EC50 [2]?
Answer: 3.77 µM (active)

Question: What about the EC50 [3] of the same compound?
Answer: 5.71 µM (inconclusive)

Question: And the EC50 [4]?
Answer: 4.12 µM (active)

Question: And the AC50 (INS1)?
Answer: 3.5 µM (active)

Question: What about the AC50 [5] of the same compound?
Answer: 15.7 µM (active)

Question: For CCCCCCCCCC(=O)NO, which IC50 [6] is on record?
Answer: 27 µM (inactive)

Question: Which IC50 (Protein Wnt-3a [7]) does the source give for C[N+]1=C(/C=C/Nc2ccccc2)C(C)(C)c2ccccc21 here?
Answer: 50 µM (inactive)

Question: What about the IC50 [8] of the same compound?
Answer: 17.4 µM (active)

Question: With COc1ccc2cc(C(=O)N3CCN(c4cccc(C)c4C)CC3)[nH]c2c1 as the compound, how does the IC50 (Beta-galactosidase) read?
Answer: > 80 µM (inactive)

Question: What does the source list for Cc1cc(C)c2nc3sc(=Cc4ccc(-c5ccccc5C(=O)O)o4)c(=O)n3c2c1?
Answer: IC50 [9]: 62.9 µM (inactive); IC50 [10]: 26.5 µM (inactive); IC50 [11]: > 66.6 µM (inactive); IC50 [12]: 5.88 µM (active)

Question: With O=C(Nc1cc(N2CCCCC2)ncn1)c1cccc(F)c1 as the compound, how does the IC50 (Protein Wnt-3a [13]) read?
Answer: > 21.8 µM (inactive)

Question: Which AC50 [14] does the source give for Cc1ccc(S(=O)(=O)Nc2ccc3c(c2)CC(=O)N([C@H](C)CO)C[C@@H](C)[C@@H](CN(C)Cc2ccc(Cl)c(Cl)c2)O3)cc1 here?
Answer: 3.29 µM (active)

Question: What about the AC50 [15] of the same compound?
Answer: 9.47 µM (active)

Question: With Cc1ccc2nc(O)c3cc(C(=O)N(C)Cc4ccco4)sc3c2c1 as the compound, how does the EC50 [16] read?
Answer: > 91.2 µM (inactive)

Question: What about the EC50 [17] of the same compound?
Answer: > 91.2 µM (inactive)

Question: Which IC50 [18] does the source give for COc1ccc(NC(=O)NNC(=O)c2ccc3ccccc3c2O)c(OC)c1 here?
Answer: > 122 µM (inactive)

Question: Which IC50 (Large T antigen) does the source give for NC(=O)N/N=C/c1ccc(N2CCOCC2)s1 here?
Answer: 13.8 µM (active)

Question: And the IC50 [19]?
Answer: 9.07 µM (active)

Question: What about the IC50 [20] of the same compound?
Answer: 40.4 µM (active)

Question: What about the IC50 [21] of the same compound?
Answer: 11.1 µM (active)

Question: Which IC50 [22] does the source give for C[C@H]1CN([C@@H](C)CO)C(=O)c2cccc(NC(=O)c3ccncc3)c2O[C@@H]1CN(C)Cc1ccc(C(=O)Nc2ccccc2N)cc1 here?
Answer: > 20 µM (inactive)
